Data on 34 compounds can be found in patent US20260062376A1, “SQUARAMIDE DERIVATIVES AS CB1 ALLOSTERIC MODULATORS” (RESEARCH TRIANGLE INSTITUTE, priority 2022, published 2026).

This assay deals with Human CB1 (Homo sapiens (Human), UniProt P21554). Nature of the assay: Calcium mobilization assay (antagonist mode vs CP55,940). The assay is classed as cell-based. The settings on record: CHO-RD-HGA16 cells stably expressing human CB1; against EC50 concentration of CP55,940; mean ± SEM, at least three experiments. As to the method: Calcium Mobilization Assay: CHO-RD-HGA16 cells (Molecular Devices, San Jose, California, United States of America) stably expressing the human CB1 receptor were plated into 96-well black-walled assay plates at 25,000 cells/well in 100 μL of Ham's F12 (supplemented with 10% fetal bovine serum, 100 units of penicillin/streptomycin, and 100 μg/mL Normocin) and incubated overnight at 37° C., 5% CO2. Calcium 5 dye (Molecular Devices, San Jose, California, United States of America) was reconstituted according to the manufacturer's instructions. The reconstituted dye was diluted 1:40 in prewarmed (37° C.) assay buffer (lx HBSS, 20 mM HEPES, 2.5 mM probenecid, pH 7.4 at 37° C.). Growth medium was removed, and the cells were gently washed with 100 μL of prewarmed (37° C.) assay buffer. […] After the pretreatment incubation period, the plate was read with a FLIPR Tetra (Molecular Devices, San Jose, California, United States of America). […] Relative fluorescence units (RFU) were plotted against the log of compound concentrations. […] Test compound RFUs were compared to the CP55,940 Emax RFUs to generate % Emax values. For the CB2 agonist and antagonist assays, the same procedures were followed except that stable human CB2—CHO-RD-HGA16 cells were used.
Chain of Human CB1 (P21554 whole entry): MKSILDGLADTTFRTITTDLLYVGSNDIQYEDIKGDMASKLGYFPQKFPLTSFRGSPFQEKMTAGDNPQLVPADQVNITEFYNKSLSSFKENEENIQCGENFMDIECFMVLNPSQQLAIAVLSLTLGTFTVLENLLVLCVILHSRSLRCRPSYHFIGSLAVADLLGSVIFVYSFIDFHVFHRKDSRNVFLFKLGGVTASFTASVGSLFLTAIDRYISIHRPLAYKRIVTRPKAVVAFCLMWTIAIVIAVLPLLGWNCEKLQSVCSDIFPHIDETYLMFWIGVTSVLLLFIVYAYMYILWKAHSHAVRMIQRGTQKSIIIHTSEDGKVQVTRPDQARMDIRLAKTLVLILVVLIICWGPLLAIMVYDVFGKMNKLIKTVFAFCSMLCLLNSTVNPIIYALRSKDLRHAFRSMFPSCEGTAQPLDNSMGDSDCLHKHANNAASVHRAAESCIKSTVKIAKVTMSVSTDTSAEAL
Data Analysis: For calcium mobilization experiments, data were fit to a three-parameter logistic curve to generate IC50 values (GraphPad Prism 6.0, Graphpad Software, San Diego, California, United States of America). For [^35S]GTPγS experiments, data were normalized to maximal CP55,940 (100 nM) stimulation in the absence of test compound (i.e., vehicle=100%).
Background: Calcium flux is commonly read through the fluorescence of an indicator in the cells.

Regarding `O=c1c(NCCCc2ccccc2)c(Nc2ccc(Cl)cc2)c1=O` [Compound 12, 3-[(4-Chlorophenyl)amino]-4-[(3-phenylpropyl)amino]cyclobut-3-ene-1,2-dione], the IC50 was 1040 ± 359 nM. Consider `O=c1c(NCCc2ccc(Cl)cc2)c(Nc2ccc(Cl)cc2)c1=O` [Compound 13, 3-[(4-Chlorophenyl)amino]-4-{[2-(4-chlorophenyl)ethyl]amino}cyclobut-3-ene-1,2-dione], for which the IC50 stood at 222 ± 35 nM.

Consider `Cc1cccc(CCNc2c(Nc3ccc(Cl)cc3)c(=O)c2=O)c1` [Compound 14, 3-[(4-Chlorophenyl)amino]-4-{[2-(3-methylphenyl)ethyl]amino}cyclobut-3-ene-1,2-dione], for which the IC50 is 205 ± 41 nM. For the compound `Cc1ccc(CCNc2c(Nc3ccc(Cl)cc3)c(=O)c2=O)cc1` [Compound 15, 3-[(4-Chlorophenyl)amino]-4-{[2-(4-methylphenyl)ethyl]amino}cyclobut-3-ene-1,2-dione], the half-maximal inhibitory concentration (IC50) came to 164 ± 30 nM. With `COc1ccccc1CCNc1c(Nc2ccc(Cl)cc2)c(=O)c1=O` [Compound 16, 3-[(4-Chlorophenyl)amino]-4-{[2-(2-methoxyphenyl)ethyl]amino}cyclobut-3-ene-1,2-dione], the concentration for half-maximal inhibition (IC50) was 1110 ± 88 nM.

`COc1cccc(CCNc2c(Nc3ccc(Cl)cc3)c(=O)c2=O)c1` [Compound 17, 3-[(4-Chlorophenyl)amino]-4-{[2-(3-methoxyphenyl)ethyl]amino}cyclobut-3-ene-1,2-dione]: the IC50 came to 350 ± 39 nM.

In the case of `COc1ccc(CCNc2c(Nc3ccc(Cl)cc3)c(=O)c2=O)cc1` [Compound 18, 3-[(4-Chlorophenyl)amino]-4-{[2-(4-methoxyphenyl)ethyl]amino}cyclobut-3-ene-1,2-dione], the IC50 is 734 ± 310 nM. Regarding `O=c1c(NCCc2ccccc2C(F)(F)F)c(Nc2ccc(Cl)cc2)c1=O` [Compound 19, 3-[(4-Chlorophenyl)amino]-4-({2-[2-(trifluoromethyl)phenyl]ethyl}amino)cyclobut-3-ene-1,2-dione], the IC50 came to 933 nM. The figure for `O=c1c(NCCc2cccc(C(F)(F)F)c2)c(Nc2ccc(Cl)cc2)c1=O` [Compound 20, 3-[(4-Chlorophenyl)amino]-4-({2-[3-(trifluoromethyl)phenyl]ethyl}amino)cyclobut-3-ene-1,2-dione] is 360 ± 65 nM; for `O=c1c(NCCc2ccc(C(F)(F)F)cc2)c(Nc2ccc(Cl)cc2)c1=O` [Compound 21, 3-[(4-Chlorophenyl)amino]-4-({2-[4-(trifluoromethyl)phenyl]ethyl}amino)cyclobut-3-ene-1,2-dione] it is 275 ± 13 nM. Take `O=c1c(NCCc2ccc(F)cc2)c(Nc2ccc(Cl)cc2)c1=O` [Compound 22, 3-[(4-Chlorophenyl)amino]-4-{[2-(4-fluorophenyl)ethyl]amino}cyclobut-3-ene-1,2-dione]: the IC50 is 337 ± 21 nM. For the compound `O=c1c(NCCc2ccccc2Cl)c(Nc2ccc(Cl)cc2)c1=O` [Compound 23, 3-[(4-Chlorophenyl)amino]-4-{[2-(2-chlorophenyl)ethyl]amino}cyclobut-3-ene-1,2-dione], the IC50 was determined as 1290 ± 201 nM. The value for `O=c1c(NCCc2ccccc2F)c(Nc2ccc(Cl)cc2)c1=O` [Compound 24, 3-[(4-Chlorophenyl)amino]-4-{[2-(2-fluorophenyl)ethyl]amino}cyclobut-3-ene-1,2-dione] was 274 ± 33 nM; that for `O=c1c(NCCc2cccc(F)c2)c(Nc2ccc(Cl)cc2)c1=O` [Compound 25, 3-[(4-Chlorophenyl)amino]-4-{[2-(3-fluorophenyl)ethyl]amino}cyclobut-3-ene-1,2-dione] was 286 ± 28 nM.

As to `CN(C)c1cccc(CCNc2c(Nc3ccc(Cl)cc3)c(=O)c2=O)c1` [Compound 26, 3-[(4-Chlorophenyl)amino]-4-({2-[3-(dimethylamino)phenyl]ethyl}amino)cyclobut-3-ene-1,2-dione], the IC50 was 2100 ± 272 nM. The value for `CN(C)c1ccc(CCNc2c(Nc3ccc(Cl)cc3)c(=O)c2=O)cc1` [Compound 27, 3-[(4-Chlorophenyl)amino]-4-({2-[4-(dimethylamino)phenyl]ethyl}amino)cyclobut-3-ene-1,2-dione] was 535 ± 135 nM; that for `O=c1c(Nc2ccc(Cl)cc2)c(Nc2cccc(-c3ccccc3)c2)c1=O` [Compound 29, 3-(Biphenyl-3-ylamino)-4-[(4-chlorophenyl)amino]cyclobut-3-ene-1,2-dione] was 408 ± 94 nM; that for `O=c1c(Nc2ccc(Cl)cc2)c(Nc2cccc(-c3cscn3)c2)c1=O` [Compound 31, 3-[(4-Chlorophenyl)amino]-4-{[3-(1,3-thiazol-4-yl)phenyl]amino}cyclobut-3-ene-1,2-dione] was 154 ± 14 nM. Turning to `O=c1c(Nc2ccc(Cl)cc2)c(Nc2cccc(-c3ccsc3)c2)c1=O` [Compound 32, 3-[(4-Chlorophenyl)amino]-4-{[3-(thiophen-3-yl)phenyl]amino}cyclobut-3-ene-1,2-dione], the 50% inhibitory concentration (IC50) turned out to be 463 ± 56 nM. For `O=c1c(Nc2ccc(Cl)cc2)c(Nc2ccc(-c3ccccc3)cc2)c1=O` [Compound 34, 3-(Biphenyl-4-ylamino)-4-[(4-chlorophenyl)amino]cyclobut-3-ene-1,2-dione], the IC50 is 1480 ± 297 nM. Take `Cc1ccccc1CCNc1c(Nc2ccc(Cl)cc2)c(=O)c1=O` [Compound 35, 3-[(4-Chlorophenyl)amino]-4-{[2-(2-methylphenyl)ethyl]amino}cyclobut-3-ene-1,2-dione]: the IC50 came out at 353 ± 37 nM. The value for `O=c1c(NCCc2ccccn2)c(Nc2ccc(Cl)cc2)c1=O` [Compound 36, 3-[(4-Chlorophenyl)amino]-4-{[2-(pyridin-2-yl)ethyl]amino}cyclobut-3-ene-1,2-dione] was 958 ± 60 nM; that for `O=c1c(NCCc2ccncc2)c(Nc2ccc(Cl)cc2)c1=O` [Compound 37, 3-[(4-Chlorophenyl)amino]-4-{[2-(pyridin-4-yl)ethyl]amino}cyclobut-3-ene-1,2-dione] was above 10000 nM.

For the compound `O=c1c(NCCc2ccc(Br)cc2)c(Nc2ccc(Cl)cc2)c1=O` [Compound 38, 3-[(4-Chlorophenyl)amino]-4-{[2-(4-bromophenyl)ethyl]amino}cyclobut-3-ene-1,2-dione], the IC50 is 333 ± 7 nM. The figure for `O=c1c(NCCc2cccs2)c(Nc2ccc(Cl)cc2)c1=O` [Compound 39, 3-[(4-Chlorophenyl)amino]-4-{[2-(thiophen-2-yl)ethyl]amino}cyclobut-3-ene-1,2-dione] is 399 ± 22 nM; for `O=c1c(NCCc2ccc(Cl)c(Cl)c2)c(Nc2ccc(Cl)cc2)c1=O` [Compound 41, 3-[(4-Chlorophenyl)amino]-4-{[2-(3,4-dichlorophenyl)ethyl]amino}cyclobut-3-ene-1,2-dione] it is 877 ± 31 nM. On to `Cc1ccc(CCNc2c(Nc3ccc(Cl)cc3)c(=O)c2=O)cc1C` [Compound 42, 3-[(4-Chlorophenyl)amino]-4-{[2-(3,4-dimethylphenyl)ethyl]amino}cyclobut-3-ene-1,2-dione], for which the IC50 is 408 ± 66 nM. The value for `O=c1c(NCCc2cccc(O)c2)c(Nc2ccc(Cl)cc2)c1=O` [Compound 43, 3-[(4-Chlorophenyl)amino]-4-{[2-(3-hydroxyphenyl)ethyl]amino}cyclobut-3-ene-1,2-dione] was 2070 ± 204 nM; that for `O=c1c(NCCc2ccc(Cl)cc2Cl)c(Nc2ccc(Cl)cc2)c1=O` [Compound 44, 3-[(4-Chlorophenyl)amino]-4-{[2-(2,4-dichlorophenyl)ethyl]amino}cyclobut-3-ene-1,2-dione] was 1140 ± 183 nM. The value for `O=c1c(NCCN2CCCCC2)c(Nc2ccc(Cl)cc2)c1=O` [Compound 45, 3-[(4-Chlorophenyl)amino]-4-{[2-(piperidin-1-yl)ethyl]amino}cyclobut-3-ene-1,2-dione] was above 10000 nM; that for `CCN(CC)c1ccc(CCNc2c(Nc3ccc(Cl)cc3)c(=O)c2=O)cc1` [Compound 48, 3-[(4-Chlorophenyl)amino]-4-({2-[4-(diethylamino)phenyl]ethyl}amino)cyclobut-3-ene-1,2-dione] was 639 ± 247 nM; that for `O=c1c(NCCc2ccc(N3CCCCC3)cc2)c(Nc2ccc(Cl)cc2)c1=O` [Compound 49, 3-[(4-Chlorophenyl)amino]-4-{[2-(4-piperidin-1-ylphenyl)ethyl]amino}cyclobut-3-ene-1,2-dione] was above 10000 nM.

As to `O=c1c(NCCc2ccc(N3CCCC3)cc2)c(Nc2ccc(Cl)cc2)c1=O` [Compound 50, 3-[(4-Chlorophenyl)amino]-4-{[2-(4-pyrrolidin-1-ylphenyl)ethyl]amino}cyclobut-3-ene-1,2-dione], the half-maximal inhibitory concentration (IC50) is above 10000 nM. The figure for `O=c1c(NCCc2ccc(N3CCC3)cc2)c(Nc2ccc(Cl)cc2)c1=O` [Compound 51, 3-{[2-(4-Azetidin-1-ylphenyl)ethyl]amino}-4-[(4-chlorophenyl)amino]cyclobut-3-ene-1,2-dione] is above 10000 nM.

What is called IC50 is the concentration that inhibits the measured activity by half.
